Data published in US20240138411A1, “METHOD OF […] OF SUGARCANE” (CORTEVA AGRISCIENCE LLC, priority 2021, published 2024).

Test system: sugarcane
Assay: Sugarcane flowering inhibition field trials, floral induction rated on UFSCar scale
Format: in vivo
Protocol: In order to explore the activity of florpyrauxifen as flowering inhibitor in sugarcane, field studies were carried out. Florpyrauxifen-benzyl was tested at rates from 2 to 20 grams active ingredient per hectare (g ai/ha) and compared to Ethrel® 720 (Bayer), the standard treatment. The flowering inhibition effect was assessed by checking the floral induction in sugarcane through the percentage scale recommended by UFSCar (Federal University of Sao Carlos, Sao Paulo, Brazil).
Four trials were carried out in sugarcane where florpyrauxifen-benzyl (Rinskor®), applied at a rate of 2 to 20 g ai/ha, was compared to ethephon (Ethrel® 720) applied at a rate of 475 g ai/ha. Control plots of untreated sugarcane were also evaluated. Rinskor® and Ethrel® 720 were diluted in water and a single application for each study (backpack sprayer) was performed delivering 50 L of spray solution per ha at the reproductive stage of sugarcane and at a maximum 150 days before harvest. The activity of florpyrauxifen-benzyl as a flowering inhibitor was measured via assessments (Scale of flowering inhibition—see chart 1) performed at 0, 14, 30, 45, 60, 75, 90, 120, 150 days after application, or up to harvest time. The assessments were measured in sugarcane stems, rating the flowering induction according to the UFSCar scale shown below. Significance of treatment effect was evaluated with F-approximate test (α=0.1) and least square means from different treatments were compared with Tukey's test.

## COc1c(Cl)ccc(-c2nc(C(=O)OCc3ccccc3)c(Cl)c(N)c2F)c1F [Rinskor, florpyrauxifen-benzyl]
Table 1, 120 DAA, 20 g ai/ha
  % Referring to Scale: 12.8%
  Frequency 1/1 (0%): 15.0%
  Frequency 2/1 (15%): 85.0%
  Frequency 3/1 (30%): 0.0%
  Frequency 4/1 (50%): 0.0%
  Frequency 4/2 (80%): 0.0%
  Frequency 4/3 (90%): 0.0%
  Frequency 4/4 (100%): 0.0%
Table 2, 75 DAA, 2 g ai/ha
  % Referring to Scale: 1.1%
  Frequency 1/1 (0%): 92.5%
  Frequency 2/1 (15%): 7.5%
  Frequency 3/1 (30%): 0.0%
  Frequency 4/1 (50%): 0.0%
  Frequency 4/2 (80%): 0.0%
  Frequency 4/3 (90%): 0.0%
  Frequency 4/4 (100%): 0.0%
Table 2, 75 DAA, 5 g ai/ha
  % Referring to Scale: 0.8%
  Frequency 1/1 (0%): 95.0%
  Frequency 2/1 (15%): 5.0%
  Frequency 3/1 (30%): 0.0%
  Frequency 4/1 (50%): 0.0%
  Frequency 4/2 (80%): 0.0%
  Frequency 4/3 (90%): 0.0%
  Frequency 4/4 (100%): 0.0%
Table 2, 75 DAA, 7 g ai/ha
  % Referring to Scale: 0.8%
  Frequency 1/1 (0%): 95.0%
  Frequency 2/1 (15%): 5.0%
  Frequency 3/1 (30%): 0.0%
  Frequency 4/1 (50%): 0.0%
  Frequency 4/2 (80%): 0.0%
  Frequency 4/3 (90%): 0.0%
  Frequency 4/4 (100%): 0.0%
Table 2, 75 DAA, 10 g ai/ha
  % Referring to Scale: 0.4%
  Frequency 1/1 (0%): 97.5%
  Frequency 2/1 (15%): 2.5%
  Frequency 3/1 (30%): 0.0%
  Frequency 4/1 (50%): 0.0%
  Frequency 4/2 (80%): 0.0%
  Frequency 4/3 (90%): 0.0%
  Frequency 4/4 (100%): 0.0%
Table 2, 75 DAA, 15 g ai/ha
  % Referring to Scale: 1.1%
  Frequency 1/1 (0%): 92.5%
  Frequency 2/1 (15%): 7.5%
  Frequency 3/1 (30%): 0.0%
  Frequency 4/1 (50%): 0.0%
  Frequency 4/2 (80%): 0.0%
  Frequency 4/3 (90%): 0.0%
  Frequency 4/4 (100%): 0.0%
Table 2, 75 DAA, 20 g ai/ha
  % Referring to Scale: 0.8%
  Frequency 1/1 (0%): 95.0%
  Frequency 2/1 (15%): 5.0%
  Frequency 3/1 (30%): 0.0%
  Frequency 4/1 (50%): 0.0%
  Frequency 4/2 (80%): 0.0%
  Frequency 4/3 (90%): 0.0%
  Frequency 4/4 (100%): 0.0%
Table 2, 90 DAA, 2 g ai/ha
  % Referring to Scale: 60.3%
  Frequency 1/1 (0%): 0.0%
  Frequency 2/1 (15%): 0.0%
  Frequency 3/1 (30%): 20.0%
  Frequency 4/1 (50%): 32.5%
  Frequency 4/2 (80%): 47.5%
  Frequency 4/3 (90%): 0.0%
  Frequency 4/4 (100%): 0.0%
Table 2, 90 DAA, 5 g ai/ha
  % Referring to Scale: 43.5%
  Frequency 1/1 (0%): 0.0%
  Frequency 2/1 (15%): 0.0%
  Frequency 3/1 (30%): 32.5%
  Frequency 4/1 (50%): 67.5%
  Frequency 4/2 (80%): 0.0%
  Frequency 4/3 (90%): 0.0%
  Frequency 4/4 (100%): 0.0%
Table 2, 90 DAA, 7 g ai/ha
  % Referring to Scale: 44.8%
  Frequency 1/1 (0%): 0.0%
  Frequency 2/1 (15%): 0.0%
  Frequency 3/1 (30%): 37.5%
  Frequency 4/1 (50%): 55.0%
  Frequency 4/2 (80%): 7.5%
  Frequency 4/3 (90%): 0.0%
  Frequency 4/4 (100%): 0.0%
Table 2, 90 DAA, 10 g ai/ha
  % Referring to Scale: 37.4%
  Frequency 1/1 (0%): 0.0%
  Frequency 2/1 (15%): 7.5%
  Frequency 3/1 (30%): 50.0%
  Frequency 4/1 (50%): 42.5%
  Frequency 4/2 (80%): 0.0%
  Frequency 4/3 (90%): 0.0%
  Frequency 4/4 (100%): 0.0%
Table 2, 90 DAA, 15 g ai/ha
  % Referring to Scale: 39.8%
  Frequency 1/1 (0%): 0.0%
  Frequency 2/1 (15%): 15.0%
  Frequency 3/1 (30%): 25.0%
  Frequency 4/1 (50%): 60.0%
  Frequency 4/2 (80%): 0.0%
  Frequency 4/3 (90%): 0.0%
  Frequency 4/4 (100%): 0.0%
Table 2, 90 DAA, 20 g ai/ha
  % Referring to Scale: 46.0%
  Frequency 1/1 (0%): 0.0%
  Frequency 2/1 (15%): 5.0%
  Frequency 3/1 (30%): 30.0%
  Frequency 4/1 (50%): 52.5%
  Frequency 4/2 (80%): 12.5%
  Frequency 4/3 (90%): 0.0%
  Frequency 4/4 (100%): 0.0%
Table 2, 120 DAA, 2 g ai/ha
  % Referring to Scale: 95.8%
  Frequency 1/1 (0%): 0.0%
  Frequency 2/1 (15%): 0.0%
  Frequency 3/1 (30%): 0.0%
  Frequency 4/1 (50%): 0.0%
  Frequency 4/2 (80%): 5.0%
  Frequency 4/3 (90%): 32.5%
  Frequency 4/4 (100%): 62.5%
Table 2, 120 DAA, 5 g ai/ha
  % Referring to Scale: 96.5%
